According to patent US7915270B2, “Oxazole ketones as modulators of fatty acid amide hydrolase” (The Scripps Research Institute, priority 2006, dated 2011):
Read-outs that look alike come from different tables or passages of the source.

Tests used:
[1] = Pharmacokinetic testing, intravenous bolus in rats; format: in vivo; conditions: rat, plasma, 2 mg/kg, male Sprague Dawley rats, 1 mg/mL in 2 mL/kg
Description: For each test compound, two male Sprague Dawley Rats (Charles River Laboratories; approx. 300 g body weight) were used. Animals were individually housed, provided food and water ad libitum, and were maintained on a 12 h light and dark cycle. Animals received from the vendor were surgically cannulated by the vendor with right jugular vein and left carotid artery catheters. Animals were acclimatized for at least 5 days after receipt from the vendor prior to investigations.
Animals received a bolus intravenous dose of the test compound at a dose of 1 mg/mL in a volume of 2 mL/kg via the right jugular vein catheter. The intravenous dosing solution was prepared in 55% pharmasolve, 20% cremophor, and […] physiological saline, or 100% saline adjusted to pH 8.0.
Following intravenous administration, blood was collected (sampled 0.35 mL per time point from the left carotid artery catheter) at 0.083, 0.25, 0.5, 1, 2, 4, and 6 h post-dose. Blood was collected into tubes containing EDTA and stored at 4° C. for not more than 2 h. The samples were centrifuged at 10,000 rpm in a micro-centrifuge for 5 min to obtain a plasma fraction. The plasma was stored at between −20 and −80° C. until processed for analysis. These samples were analyzed by LC-MS/MS to determine the plasma level of the compound.
Plasma level vs. time plots were created and WinNonlin (Pharsight Corp.) was used to analyze the data. A non-compartmental pharmacokinetic model was used to determine the pharmacokinetic parameters, including clearance, volume of distribution (Vd), and half-life (t1/2).

[2] = biological target: T1, FAAH (Rattus norvegicus, UniProt P97612); assay: Assay Method 1A: FAAH enzyme assay, 14C-oleamide hydrolysis, solubilized liver plasma membrane extract;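 also: ki obtained by Dixon analysis, taking the x-intercept of inhibitor concentration versus reciprocal rate plots at fixed substrate level and correcting for substrate concentration relative to Km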
T1 sequence (P97612 1-579): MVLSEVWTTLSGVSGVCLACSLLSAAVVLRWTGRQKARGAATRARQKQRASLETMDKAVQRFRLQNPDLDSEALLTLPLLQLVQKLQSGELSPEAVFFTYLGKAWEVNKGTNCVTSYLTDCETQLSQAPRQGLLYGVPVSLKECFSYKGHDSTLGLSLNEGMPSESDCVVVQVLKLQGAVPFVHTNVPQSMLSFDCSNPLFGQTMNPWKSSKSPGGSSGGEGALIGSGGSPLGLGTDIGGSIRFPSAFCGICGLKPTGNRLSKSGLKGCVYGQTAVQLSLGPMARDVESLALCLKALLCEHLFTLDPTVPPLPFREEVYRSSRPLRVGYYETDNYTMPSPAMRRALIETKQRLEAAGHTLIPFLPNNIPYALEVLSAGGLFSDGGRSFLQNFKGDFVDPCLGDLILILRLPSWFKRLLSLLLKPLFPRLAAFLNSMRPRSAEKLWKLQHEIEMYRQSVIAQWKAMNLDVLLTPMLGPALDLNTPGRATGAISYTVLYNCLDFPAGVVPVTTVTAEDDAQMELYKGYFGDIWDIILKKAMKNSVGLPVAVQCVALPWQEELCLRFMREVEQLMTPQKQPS
Description: Linear least squares fits were used for all reaction progress curves and R^2 values were consistently >0.97. […] Ki values were determined by the Dixon Method (x-intercepts of weighted linear fits of [I] versus 1/rate plots at constant substrate concentration, which were converted to Ki values using the formula Ki=−xint/[1+[S]/Km]).

[3] = biological target: T2, Rat FAAH (Rattus norvegicus, UniProt P97612); assay: Assay Method 2: FAAH assay, 3H-anandamide hydrolysis in cell homogenate (SK-N-MC cells transfected with rat FAAH); format: biochemical; conditions: 3H-AEA 80 nM, rt 1 h, pH 9
T2 construct: expressed in transfected cells
T2 sequence (P97612 1-579): T1 sequence (P97612 1-579)

Vd [1] [L/kg] | clearance [1] [mL/min/kg] | half-life [1] [min] | Ki [2] [nM] | IC50 [3] [nM] | Ki ([2]; read-out: Assay 1A Ki, liver plasma membrane extract containing FAAH, 14C-oleamide, pH 9.0, 20-23 °C, Dixon method) [nM] | Structure (SMILES)
1.4 | 112 | 9 | 7 | 2 | – | O=C(O)c1ccc(-c2cnc(C(=O)CCCCCCc3ccccc3)o2)nc1 [Example 38, 6-(2-(7-Phenylheptanoyl)oxazol-5-yl)nicotinic acid]
0.86 | 7.67 | 74.4 | – | 11 | 20 | O=C(O)c1cccc(-c2cnc(C(=O)CCCCCCc3ccccc3)o2)n1 [Example 37, 6-(2-(7-Phenylheptanoyl)oxazol-5-yl)picolinic acid]
